Positions of bridges follow the written chain, without caps; N, C: chain ends. Residues, ends and D or L forms follow the SMILES beside them. No end group written: not given here.
Assays:
fresh human erythrocytes = test: Hemolytic activity; type: cell-based; conditions: peptide 0.19 to 100 μM; 0.4% human erythrocytes in PBS pH 7.4, 1 h at 37°C, read at 405 nm; triplicate
Protocol: Hemolytic activity was evaluated on fresh human erythrocytes washed three times with phosphate-buffered saline (PBS: 10 mM Na2HPO4, 1.8 mM K2-HPO4, pH 7.4, containing 140 mM NaCl and 2.7 mM KCl) ). Serial dilutions of the peptides with concentrations varying between 0.19–100 μM were incubated in Eppendorf tubes with a suspension of 0.4% erythrocytes in PBS. After 1 h at 37°C, the test tubes were centrifuged at 300g for 5 min at 5°C. Fifty microliter aliquots of the supernatants were transferred to 96-well plates and hemolysis was monitored at 405 nm using a microtiter plate reader. Negative and positive controls were prepared in PBS and in PBS supplemented with 0.1% SDS, respectively. Ang ll of the experiments was performed in triplicate.

Ae.aegypti mosquitoes = test: Survival of mosquitoes injected with ang II; type: in vivo, Aedes aegypti; conditions: 0.5 μl ang II at 10-200 μM intrathoracically; chi-square test p>0.5; mean of three independent experiments
Protocol: Supplementary file pone.0003296.s001.tif: Figure S1 Survival of mosquitoes injected with different ang II concentrations. Ae.aegypti mosquitoes (10 females) were injected intrathoracically (0.5 μl) of ang II at 10 μM, 20 μM, 50 μM, 60 μM, 100 μM and 200 μM. After 24 hour the survival of mosquitoes was scored. […] Results are the mean of three independent experiments (20 mosquitoes/group), and bars represent standard errors of the mean. (0.18 MB TIF) Click here for additional data file.

[1] = 25% pooled non-heat inactivated human serum in PBS, 37°C; 20 μl of 10 mg/ml stock in 1 ml; sampling 0-120 min; LC/ESI-MS peak area; triplicates; data not shown

Compound | Hemolytic Activity (fresh human erythrocytes) | time to degradation in serum | effect on mosquito survival after 24 hour (Ae.aegypti mosquitoes) | time within which the peptide was degraded in serum [1]
CC[C@H](C)[C@H](NC(=O)[C@H](Cc1ccc(O)cc1)NC(=O)[C@@H](NC(=O)[C@H](CCCNC(=N)N)NC(=O)[C@@H]1CCCCNC(=O)C[C@H](N)C(=O)N[C@@H](CC(=O)O)C(=O)N1)C(C)C)C(=O)N[C@@H](Cc1c[nH]cn1)C(=O)N1CCC[C@H]1C(=O)N[C@@H](Cc1ccccc1)C(=O)O [VC1, Cyclo(0-1a)[Asp^0, endo-(Lys^1a)]-All] (H-DDKRVYIHPF-OH; lactam 1-3) | neg | < 30 min | – | –
CC[C@H](C)[C@H](NC(=O)[C@H](Cc1ccc(O)cc1)NC(=O)[C@@H](NC(=O)[C@@H]1CCCCNC(=O)C[C@H](NC(=O)[C@@H](N)CC(=O)O)C(=O)N[C@@H](CCCNC(=N)N)C(=O)N1)C(C)C)C(=O)N[C@@H](Cc1c[nH]cn1)C(=O)N1CCC[C@H]1C(=O)N[C@@H](Cc1ccccc1)C(=O)O [VC3, Cyclo(1a-2a)[endo-(Asp^1a), endo-(Lys^2a)]-All] (H-DDRKVYIHPF-OH; lactam 2-4) | neg | < 30 min | – | –
CC[C@H](C)[C@H](NC(=O)[C@H](Cc1ccc(O)cc1)NC(=O)[C@@H]1CCCCNC(=O)C[C@H](NC(=O)[C@H](CCCNC(=N)N)NC(=O)[C@@H](N)CC(=O)O)C(=O)N[C@@H](C(C)C)C(=O)N1)C(=O)N[C@@H](Cc1c[nH]cn1)C(=O)N1CCC[C@H]1C(=O)N[C@@H](Cc1ccccc1)C(=O)O [VC5, Cyclo(2a-3a)[endo-(Asp^2a), endo-(Lys^3a)]-All] (H-DRDVKYIHPF-OH; lactam 3-5) | neg | < 30 min | – | –
CC[C@H](C)[C@H](NC(=O)[C@H](Cc1ccc(O)cc1)NC(=O)[C@@H](NC(=O)[C@H](CCCNC(=N)N)NC(=O)[C@@H](N)CC(=O)O)C(C)C)C(=O)N[C@@H](Cc1cnc[nH]1)C(=O)N1CCC[C@H]1C(=O)N[C@@H](Cc1ccccc1)C(=O)O [ang II, Angiotensin II] | neg | – | no significant effects | ≤ 30 min
DDKRVYIHPF [VC2, [Asp^0, endo-(Lys^1a)]-All] | neg | < 30 min | – | –
DDRKVYIHPF [VC4, [endo-(Asp^1a), endo-(Lys^2a)]-All] | neg | < 30 min | – | –
DRDVKYIHPF [VC6, [endo-(Asp^2a), endo-(Lys^3a)]-All] | neg | < 30 min | – | –
